The results in this text go back to patent US20130231303A1, “5-HALOGENOPYRAZOLE(THIO)CARBOXAMIDES” (Bayer Intellectual Property GmbH, priority 2010, published 2013).

The subject of data set [1] is Alternaria solani. Description: Alternaria test (tomato)/preventive. Type of data set: in vivo. The following applies: preventive, 500 ppm, evaluated 7 days after inoculation. Here is the method:
The plants remain for one day in an incubation cabinet at approximately 22° C. and a relative atmospheric humidity of 100%. Then the plants are placed in an incubation cabinet at approximately 20° C. and a relative atmospheric humidity of 96%.

Data set [2] has as its system Pyrenophora teres. Kind of data set: Pyrenophora test (barley)/preventive. The class given is in vivo. The following applies: preventive, 500 ppm, evaluated 7-9 days after inoculation. The method, then:
(§1) The plants remain for 48 hours in an incubation cabinet at 22° C. and a relative atmospheric humidity of 100%. Then the plants are placed in a greenhouse at a temperature of approximately 20° C. and a relative atmospheric humidity of approximately 80%.

Data set [3] in a line: logP by HPLC on reversed-phase column (EEC Directive 79/831 Annex V.A8). The class given is physicochemical. Here is the method: In table 1, the logP values were determined in accordance with EEC Directive 79/831 Annex V.A8 by HPLC (High Performance Liquid Chromatography) on a reversed-phase column (C 18), using the method described below: Temperature: 40° C.; Mobile phases: 0.1% aqueous formic acid and acetonitrile; linear gradient from 10% acetonitrile to 90% acetonitrile. Calibration was carried out using unbranched alkan-2-ones (comprising 3 to 16 carbon atoms) with known logP values (determination of the logP values by the retention times using linear interpolation between two successive alkanones). lambda-max-values were determined using UV-spectra from 200 nm to 400 nm and the peak values of the chromatographic signals.

The subject of data set [4] is Puccinia recondita. Kind of data set: Puccinia test (wheat)/preventive. Type of data set: in vivo. The following applies: preventive, 500 ppm, evaluated 7-9 days after inoculation. Here is the method: as §1
Data set [5] has as its system Blumeria graminis f.sp. hordei. Kind of data set: Blumeria test (barley)/preventive. Type of data set: in vivo. The following applies: preventive, 500 ppm, evaluated 7 days after inoculation. The method, then: After the spray coating has been dried, the plants are dusted with spores of Blumeria graminis f.sp. hordei. The plants are placed in the greenhouse at a temperature of approximately 18° C. and a relative atmospheric humidity of approximately 80% to promote the development of mildew pustules.

Data set [6] deals with Sphaerotheca fuliginea. Description: Sphaerotheca test (cucumber)/preventive. Type of data set: in vivo. To be noted: preventive, 500 ppm, evaluated 7 days after inoculation. The method, then: Then the plants are placed in a greenhouse at approximately 23° C. and a relative atmospheric humidity of approximately 70%.
For data set [7], the system named is Fusarium nivale (var. majus). Description: Fusarium nivale (var. majus)-test (wheat)/preventive. Type of data set: in vivo. To be noted: preventive; for Efficacy: evaluated 5 days after inoculation. The method, then:
After the spray coating has been dried, the plants are slightly injured by using a sandblast and afterwards they are sprayed with a conidia suspension of Fusarium nivale (var. majus). The plants are placed in the greenhouse under a translucent incubation cabinet at a temperature of approximately 10° C. and a relative atmospheric humidity of approximately 100%.

Setting [8] is: HPLC, reversed-phase C 18, 40° C., 0.1% aqueous formic acid and acetonitrile gradient.

Structures are written as SMILES. Read-outs that look alike come from different tables or passages of the source.

As for `CCCC=C(C)c1sccc1NC(=O)c1c(C(F)F)nn(C)c1Cl` (mixture of isomers) [Example 26], the Efficacy was found to be 75% in data set [1] and 89% in data set [2].

By logP is commonly meant a log measure of how a compound divides between an organic and an aqueous phase. Lower therefore signals a more hydrophilic compound. Regarding `CCC(CC(C)C)c1sccc1NC(=O)c1c(C(F)F)nn(C)c1Cl` (stereo not shown) [Example 15], in data set [3] (setting [8]), the logP is listed as 4.46. Further, the Efficacy in data set [4] was 90%; in data set [1], 88%; in data set [5], 94%; in data set [2], 100%.

Take `CCCCC=Cc1sccc1NC(=O)c1c(C(F)F)nn(C)c1Cl` [Example 25]: in data set [3], the lipophilicity (logP) is 4.12.

`CCCC(C)c1sccc1NC(=O)c1c(C(F)F)nn(C)c1Cl` (stereo not shown) [Example 2] came in with a logP in data set [3] (setting [8]) of 3.70. In addition, the figures for the Efficacy in data set [4], in data set [1] and in data set [2] were 100%, 94% and 100%, respectively.

For `Cn1nc(C(F)F)c(C(=O)Nc2ccsc2C=C2CCCCC2)c1Cl` [Example 30], the lipophilicity (logP) in data set [3] was 4.25. The Efficacy in data set [1] is 70%; in data set [2], 80%.

Turning to `CC=C(c1sccc1NC(=O)c1c(C(F)F)nn(C)c1Cl)C(C)C` [Example 27], the logP in data set [3] (setting [8]) was found to be 4.26. The values for the Efficacy in data set [4], in data set [1] and in data set [2] were 80%, 75% and 89%, respectively.

As to `CC(CC(C)(C)C)c1sccc1NC(=O)c1c(C(F)F)nn(C)c1Cl` (stereo not shown) [Example 17], the logP in data set [3] (setting [8]) came to 4.29. Further, the Efficacy in data set [4] turned out to be 100%; in data set [1] it was 94%; in data set [6] it was 100%; in data set [2] it was 94%.

In the case of `CC(C)CCc1sccc1NC(=O)c1c(C(F)F)nn(C)c1Cl` [Example 1], the lipophilicity (logP) in data set [3] (setting [8]) amounted to 3.74. For the same molecule, the Efficacy in data set [4] turned out to be 95%; in data set [1], 100%; in data set [5] it was 94%; in data set [7] (500 ppm), 80%; in data set [2], 100%.

In data set [3] (setting [8]), `Cn1nc(C(F)F)c(C(=O)Nc2ccsc2C=CC(C)(C)C)c1Cl` [Example 23] came in with a logP of 3.92. Besides, the Efficacy is 90% in data set [4], 70% in data set [1] and 80% in data set [2].

`CCCCC(C)c1sccc1NC(=O)c1c(C(F)F)nn(C)c1Cl` (stereo not shown) [Example 7]: the logP in data set [3] (setting [8]) turned out to be 4.25. The Efficacy in data set [4] came out at 100%; in data set [7] (500 ppm) it was 90%; in data set [2], 95%.

In data set [3], `CCC(=Cc1sccc1NC(=O)c1c(C(F)F)nn(C)c1Cl)CC` [Example 24] yielded a log partition coefficient (logP) of 4.06. The Efficacy in data set [4] and in data set [2] was 90% throughout.

With `Cn1nc(C(F)F)c(C(=O)Nc2ccsc2CCC(C)(C)C)c1Cl` [Example 6], in data set [3] (setting [8]), the logP was determined as 4.01. Moreover, the Efficacy was determined as 100% in data set [4]; 95% in data set [1]; 94% in data set [5]; 89% in data set [6]; 100% in data set [7] (500 ppm); 100% in data set [2].

Regarding `CC(C)CC(C)c1sccc1NC(=O)c1cn(C)nc1C(F)(F)F` (stereo not shown) [Example 1.13 from EP-0737682, 1-methyl-N-[2-(4-methylpentan-2-yl)-3-thienyl]-3-(trifluoromethyl)-1H-pyrazole-4-carboxamide, reference compound], the Efficacy was 14% in data set [7] (250 ppm) and 43% in data set [7] (500 ppm). For the same molecule, the protection entry in data set [7] (dose of 250 ppm and 500 ppm (text summary of table G2)) is given as “less than 50%”.

Molecule `Cc1ccc(-c2ccsc2NC(=O)c2c(C(F)F)nn(C)c2F)cc1` [Example 40] displayed a logP in data set [3] of 3.60.

Turning to `CC=C(c1ccccc1)c1sccc1NC(=O)c1c(C(F)F)nn(C)c1Cl` [Example 37], the logP in data set [3] is given as 3.70.

In turn, `Cn1nc(C(F)F)c(C(=O)Nc2ccsc2-c2ccccc2)c1F` [Example 38] gave a logP in data set [3] of 3.11.

As for `CCCCC(C)c1sccc1NC(=O)c1c(C(F)F)nn(C)c1Cl` (stereo not shown) [Example 8], the log partition coefficient (logP) in data set [3] (setting [8]) is 4.13. The Efficacy in data set [4] came to 95%; in data set [1], 94%; in data set [2], 100%.

Turning to `CCCC(CCC)c1sccc1NC(=O)c1c(C(F)F)nn(C)c1Cl` [Example 14], the logP in data set [3] amounted to 4.54. Further, the Efficacy is on record as 70% in data set [4] and 94% in data set [2].

On to `C=C(c1sccc1NC(=O)c1c(C(F)F)nn(C)c1Cl)C1CCCCC1` [Example 36], for which the Efficacy in data set [4] came to 80%; in data set [2], 95%.

`Cn1nc(C(F)F)c(C(=S)Nc2ccsc2CC[Si](C)(C)C)c1F` [Example 20] gave a logP in data set [3] of 4.46.

Turning to `CCC(CC)Cc1sccc1NC(=O)c1c(C(F)F)nn(C)c1Cl` [Example 5], the logP in data set [3] (setting [8]) is 4.03. The Efficacy in data set [4] was 90%; in data set [1] it was 100%; in data set [2], 100%.

In data set [3] (setting [8]), `CCC(C)C(C)=Cc1sccc1NC(=O)c1c(C(F)F)nn(C)c1Cl` (stereo not shown) [Example 31] came in with a logP of 4.41. This molecule also gave an Efficacy in data set [2] of 70%.

For the molecule `CCC=C(C)c1sccc1NC(=O)c1c(C(F)F)nn(C)c1Cl` (mixture of isomers) [Example 22], the Efficacy in data set [4] turned out to be 80%; in data set [1], 94%; in data set [2], 94%.

In the case of `CC(=CC(C)(C)C)c1sccc1NC(=O)c1c(C(F)F)nn(C)c1Cl` (mixture of isomers) [Example 33], the results for the Efficacy in data set [4], in data set [1] and in data set [2] were 95%, 88% and 94%, respectively.

Molecule `CCC=C(CCC)c1sccc1NC(=O)c1c(C(F)F)nn(C)c1Cl` (mixture of isomers) [Example 32] gave an Efficacy in data set [4] of 80%.

Molecule `CC(CCCC#N)c1sccc1NC(=O)c1c(C(F)F)nn(C)c1Cl` (stereo not shown) [Example 11] registered a logP in data set [3] of 2.57. Moreover, the Efficacy in data set [4] was 100%; in data set [2] it was 94%.

Take `CC(C)CCC(C)c1sccc1NC(=O)c1c(C(F)F)nn(C)c1Cl` (stereo not shown) [Example 16]: in data set [3] (setting [8]), the logP was 4.45. In addition, the results for the Efficacy in data set [4], in data set [1] and in data set [2] were 100%, 88% and 94%, respectively.

`CCC(C)=C(C)c1sccc1NC(=O)c1c(C(F)F)nn(C)c1Cl` [Example 28] returned a logP in data set [3] (setting [8]) of 4.23. Moreover, the values for the Efficacy in data set [4], in data set [1] and in data set [2] were 80%, 94% and 100%, respectively.

Turning to `CCC(C)C(C)Cc1sccc1NC(=O)c1c(C(F)F)nn(C)c1Cl` (stereo not shown) [Example 13], the logP in data set [3] (setting [8]) came to 4.41. For the same molecule, the Efficacy in data set [4] is listed as 90%; in data set [1], 95%; in data set [5] it was 100%; in data set [7] (500 ppm), 100%; in data set [2], 100%.

`CC(c1sccc1NC(=O)c1c(C(F)F)nn(C)c1Cl)C1CCCCC1` (stereo not shown) [Example 21]: the logP in data set [3] (setting [8]) was 4.56. Also, the results for the Efficacy in data set [4], in data set [1] and in data set [2] were 95%, 95% and 100%, respectively.

On to `Cn1nc(C(F)F)c(C(=O)Nc2cc(-c3ccc(Cl)cc3)cs2)c1F` [Example 41], for which, in data set [3], the logP was 3.87.

For the molecule `CC(=CCC(C)C)c1sccc1NC(=O)c1c(C(F)F)nn(C)c1Cl` (mixture of isomers) [Example 34], the Efficacy in data set [2] turned out to be 78%.

With `CCC(C)C(C)c1sccc1NC(=O)c1c(C(F)F)nn(C)c1Cl` (stereo not shown) [Example 10], the logP in data set [3] stood at 3.99. In addition, the Efficacy in data set [4] is recorded as 90%; in data set [2], 100%.

`CCC(c1sccc1NC(=O)c1c(C(F)F)nn(C)c1Cl)C(C)C` (stereo not shown) [Example 9] displayed a log partition coefficient (logP) in data set [3] (setting [8]) of 4.07. Also, the Efficacy in data set [4] was 80%; in data set [1], 94%; in data set [2], 100%.

Consider `Cn1nc(C(F)F)c(C(=O)Nc2ccsc2CC2CCCCC2)c1Cl` [Example 12], for which, in data set [3] (setting [8]), the logP is on record as 4.27. Further, the Efficacy in data set [4] amounted to 95%; in data set [1], 100%; in data set [5], 94%; in data set [2], 100%.
